# Test results taken from ChEMBL document CHEMBL5291721, “A preclinical secondary pharmacology resource illuminates target-adverse drug reaction associations of marketed drugs” (Nat Commun, 2023).
# Legend:
# Motilin receptor = Motilin receptor (Homo sapiens, UniProt O43193)
# [1] = biological target: Voltage-gated inwardly rectifying potassium channel KCNH2 (Homo sapiens, UniProt Q12809); assay type: functional
# [2] = biological target: Kappa-type opioid receptor (Homo sapiens, UniProt P41145)
# D(1A) dopamine receptor = D(1A) dopamine receptor (Homo sapiens, UniProt P21728); assay type: functional, cell-based
# [3] = biological target: T1, Neuropeptide Y receptor type 1 (Homo sapiens, UniProt P25929)
# T1 sequence (P25929 whole entry): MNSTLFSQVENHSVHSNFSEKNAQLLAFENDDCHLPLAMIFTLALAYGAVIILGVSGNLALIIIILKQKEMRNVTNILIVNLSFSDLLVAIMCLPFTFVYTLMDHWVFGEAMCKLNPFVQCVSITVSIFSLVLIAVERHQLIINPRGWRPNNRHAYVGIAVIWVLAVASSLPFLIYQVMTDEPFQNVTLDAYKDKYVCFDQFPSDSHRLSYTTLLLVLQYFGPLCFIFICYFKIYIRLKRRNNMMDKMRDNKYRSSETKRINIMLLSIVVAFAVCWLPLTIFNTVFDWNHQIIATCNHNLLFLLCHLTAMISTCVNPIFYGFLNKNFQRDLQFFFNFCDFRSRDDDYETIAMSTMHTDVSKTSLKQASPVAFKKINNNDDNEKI
# [4] = biological target: T2, 5-hydroxytryptamine receptor 1A (Homo sapiens, UniProt P08908); assay type: functional, cell-based
# T2 sequence (P08908 whole entry): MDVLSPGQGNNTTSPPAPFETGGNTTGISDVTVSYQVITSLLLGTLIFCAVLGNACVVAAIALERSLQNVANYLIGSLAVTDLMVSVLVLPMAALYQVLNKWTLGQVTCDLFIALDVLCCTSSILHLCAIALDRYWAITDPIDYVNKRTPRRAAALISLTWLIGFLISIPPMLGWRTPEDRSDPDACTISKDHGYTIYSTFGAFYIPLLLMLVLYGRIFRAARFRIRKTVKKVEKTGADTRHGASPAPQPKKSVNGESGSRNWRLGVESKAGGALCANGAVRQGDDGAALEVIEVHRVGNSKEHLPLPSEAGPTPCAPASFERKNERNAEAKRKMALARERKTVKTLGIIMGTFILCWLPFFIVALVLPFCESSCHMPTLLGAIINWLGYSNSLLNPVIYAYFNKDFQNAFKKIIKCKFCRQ
# [5] = biological target: T3, Amine oxidase [flavin-containing] A (Homo sapiens, UniProt P21397); assay type: functional
# T3 sequence (P21397 whole entry): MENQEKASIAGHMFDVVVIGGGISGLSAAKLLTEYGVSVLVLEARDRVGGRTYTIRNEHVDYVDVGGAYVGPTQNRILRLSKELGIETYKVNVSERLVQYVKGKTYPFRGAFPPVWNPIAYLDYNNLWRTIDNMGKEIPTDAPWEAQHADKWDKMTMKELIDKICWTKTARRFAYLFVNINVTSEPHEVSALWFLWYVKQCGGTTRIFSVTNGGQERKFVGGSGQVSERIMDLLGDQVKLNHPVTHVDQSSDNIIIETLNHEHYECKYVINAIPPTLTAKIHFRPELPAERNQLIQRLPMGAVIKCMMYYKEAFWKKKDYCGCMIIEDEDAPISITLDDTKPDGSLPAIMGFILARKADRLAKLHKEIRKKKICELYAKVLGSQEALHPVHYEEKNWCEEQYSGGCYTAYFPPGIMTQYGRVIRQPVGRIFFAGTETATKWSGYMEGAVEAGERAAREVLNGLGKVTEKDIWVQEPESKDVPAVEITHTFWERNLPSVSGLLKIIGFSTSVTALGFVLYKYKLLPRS
# [6] = biological target: T4, Gastrin/cholecystokinin type B receptor (Homo sapiens, UniProt P32239)
# T4 sequence (P32239 whole entry): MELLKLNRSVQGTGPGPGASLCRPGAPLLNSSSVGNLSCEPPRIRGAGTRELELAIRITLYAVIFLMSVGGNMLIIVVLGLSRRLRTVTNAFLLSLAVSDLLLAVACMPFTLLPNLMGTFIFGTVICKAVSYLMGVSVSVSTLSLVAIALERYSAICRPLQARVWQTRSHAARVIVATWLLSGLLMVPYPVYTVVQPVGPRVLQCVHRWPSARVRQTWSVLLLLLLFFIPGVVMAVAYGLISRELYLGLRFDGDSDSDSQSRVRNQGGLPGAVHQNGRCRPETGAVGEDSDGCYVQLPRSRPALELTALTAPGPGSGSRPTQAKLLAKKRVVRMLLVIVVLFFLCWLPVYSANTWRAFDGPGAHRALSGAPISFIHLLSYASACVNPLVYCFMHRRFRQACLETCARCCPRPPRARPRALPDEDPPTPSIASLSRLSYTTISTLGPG
# Progesterone receptor = biological target: T5, Progesterone receptor (Homo sapiens, UniProt P06401); assay type: functional
# T5 sequence (P06401 whole entry): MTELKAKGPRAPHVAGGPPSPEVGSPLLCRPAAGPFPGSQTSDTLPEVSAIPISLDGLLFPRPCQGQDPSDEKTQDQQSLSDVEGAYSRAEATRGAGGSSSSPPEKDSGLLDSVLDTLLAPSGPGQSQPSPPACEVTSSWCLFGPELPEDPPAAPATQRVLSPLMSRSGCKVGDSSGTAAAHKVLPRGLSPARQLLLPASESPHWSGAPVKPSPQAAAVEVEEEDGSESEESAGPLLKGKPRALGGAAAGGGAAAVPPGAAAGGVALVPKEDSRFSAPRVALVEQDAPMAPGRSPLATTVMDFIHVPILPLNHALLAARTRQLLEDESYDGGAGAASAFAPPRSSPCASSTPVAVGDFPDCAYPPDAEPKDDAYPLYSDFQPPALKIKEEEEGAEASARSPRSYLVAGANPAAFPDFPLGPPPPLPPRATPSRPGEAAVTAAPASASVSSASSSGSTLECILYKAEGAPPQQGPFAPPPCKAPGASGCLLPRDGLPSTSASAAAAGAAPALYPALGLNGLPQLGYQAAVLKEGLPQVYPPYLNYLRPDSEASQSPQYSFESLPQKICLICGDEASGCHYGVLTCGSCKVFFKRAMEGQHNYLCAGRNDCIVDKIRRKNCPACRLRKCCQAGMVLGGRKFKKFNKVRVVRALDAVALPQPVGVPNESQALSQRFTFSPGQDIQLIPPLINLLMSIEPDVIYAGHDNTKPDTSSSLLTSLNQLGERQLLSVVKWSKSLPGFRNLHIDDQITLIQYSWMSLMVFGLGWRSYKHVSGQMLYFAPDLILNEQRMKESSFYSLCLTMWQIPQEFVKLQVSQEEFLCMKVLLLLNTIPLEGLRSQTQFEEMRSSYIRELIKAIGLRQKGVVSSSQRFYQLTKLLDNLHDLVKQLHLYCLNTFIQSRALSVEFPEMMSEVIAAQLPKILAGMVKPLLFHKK
# Also: assay procedure not described here.
# Chain of Motilin receptor (O43193 whole entry): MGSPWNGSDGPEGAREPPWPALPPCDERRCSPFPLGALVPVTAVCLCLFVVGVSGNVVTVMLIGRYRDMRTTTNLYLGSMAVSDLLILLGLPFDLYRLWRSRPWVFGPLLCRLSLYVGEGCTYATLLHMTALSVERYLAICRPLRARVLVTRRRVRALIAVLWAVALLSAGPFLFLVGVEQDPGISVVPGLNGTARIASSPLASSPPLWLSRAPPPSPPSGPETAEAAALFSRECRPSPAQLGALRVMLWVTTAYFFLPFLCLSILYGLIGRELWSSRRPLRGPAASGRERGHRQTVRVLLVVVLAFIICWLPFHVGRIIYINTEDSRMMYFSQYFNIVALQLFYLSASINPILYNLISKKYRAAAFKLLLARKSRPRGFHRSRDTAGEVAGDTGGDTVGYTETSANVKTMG
# Chain of Voltage-gated inwardly rectifying potassium channel KCNH2 (Q12809 whole entry): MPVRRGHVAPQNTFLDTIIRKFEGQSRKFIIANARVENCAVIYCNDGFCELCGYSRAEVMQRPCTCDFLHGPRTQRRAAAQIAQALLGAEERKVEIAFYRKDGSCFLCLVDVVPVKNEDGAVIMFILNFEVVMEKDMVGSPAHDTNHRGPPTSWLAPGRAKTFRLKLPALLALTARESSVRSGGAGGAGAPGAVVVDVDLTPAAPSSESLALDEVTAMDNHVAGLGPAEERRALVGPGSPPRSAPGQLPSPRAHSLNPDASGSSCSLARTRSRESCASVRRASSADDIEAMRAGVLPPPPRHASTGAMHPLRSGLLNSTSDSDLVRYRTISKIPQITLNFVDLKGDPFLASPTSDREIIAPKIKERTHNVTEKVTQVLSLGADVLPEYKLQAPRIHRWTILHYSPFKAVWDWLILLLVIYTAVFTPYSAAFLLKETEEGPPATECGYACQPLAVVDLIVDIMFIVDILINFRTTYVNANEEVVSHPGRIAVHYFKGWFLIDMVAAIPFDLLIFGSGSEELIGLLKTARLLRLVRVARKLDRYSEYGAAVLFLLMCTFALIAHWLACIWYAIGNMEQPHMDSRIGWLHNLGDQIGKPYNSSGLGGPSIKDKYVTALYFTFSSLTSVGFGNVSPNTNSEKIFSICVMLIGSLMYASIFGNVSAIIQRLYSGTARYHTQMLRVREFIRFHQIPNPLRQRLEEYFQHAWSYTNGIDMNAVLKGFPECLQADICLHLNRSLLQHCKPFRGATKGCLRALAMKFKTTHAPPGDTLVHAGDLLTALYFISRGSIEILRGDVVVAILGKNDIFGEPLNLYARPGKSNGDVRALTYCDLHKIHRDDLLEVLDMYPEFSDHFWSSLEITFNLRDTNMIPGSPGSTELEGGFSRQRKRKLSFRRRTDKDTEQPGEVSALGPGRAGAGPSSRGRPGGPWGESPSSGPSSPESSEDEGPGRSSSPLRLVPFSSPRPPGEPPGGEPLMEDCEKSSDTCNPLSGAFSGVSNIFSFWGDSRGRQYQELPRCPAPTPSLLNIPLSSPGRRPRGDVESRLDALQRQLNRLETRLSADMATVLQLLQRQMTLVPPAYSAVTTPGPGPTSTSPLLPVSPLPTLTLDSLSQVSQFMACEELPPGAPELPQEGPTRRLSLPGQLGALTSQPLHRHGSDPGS
# Chain of D(1A) dopamine receptor (P21728 whole entry): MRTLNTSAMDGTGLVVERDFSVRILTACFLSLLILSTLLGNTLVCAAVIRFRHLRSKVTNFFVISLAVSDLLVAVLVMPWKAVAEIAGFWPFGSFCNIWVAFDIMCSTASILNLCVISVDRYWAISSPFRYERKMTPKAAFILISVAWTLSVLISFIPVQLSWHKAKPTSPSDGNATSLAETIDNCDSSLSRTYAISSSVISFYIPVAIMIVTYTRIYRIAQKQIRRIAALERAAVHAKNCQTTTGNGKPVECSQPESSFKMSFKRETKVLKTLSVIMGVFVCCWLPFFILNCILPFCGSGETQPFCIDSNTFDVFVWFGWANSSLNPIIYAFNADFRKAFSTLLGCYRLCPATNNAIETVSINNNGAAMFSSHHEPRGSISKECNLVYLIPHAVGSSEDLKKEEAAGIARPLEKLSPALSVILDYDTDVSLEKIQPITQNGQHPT
# Chain of Kappa-type opioid receptor (P41145 whole entry): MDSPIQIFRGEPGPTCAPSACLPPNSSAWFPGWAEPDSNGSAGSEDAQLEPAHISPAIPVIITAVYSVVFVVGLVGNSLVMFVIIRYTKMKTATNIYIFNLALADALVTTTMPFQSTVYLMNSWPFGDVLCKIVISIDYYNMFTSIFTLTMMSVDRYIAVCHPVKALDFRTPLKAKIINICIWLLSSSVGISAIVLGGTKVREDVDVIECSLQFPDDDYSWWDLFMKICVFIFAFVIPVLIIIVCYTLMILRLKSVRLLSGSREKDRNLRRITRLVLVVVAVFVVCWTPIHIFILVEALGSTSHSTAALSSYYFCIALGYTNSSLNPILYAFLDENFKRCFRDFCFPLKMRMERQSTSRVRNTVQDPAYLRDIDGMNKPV
SMILES,AC50 (Motilin receptor),AC50 [1],AC50 [2],AC50 (D(1A) dopamine receptor),AC50 [3],AC50 [4],AC50 [5],AC50 [6],AC50 (Progesterone receptor)
Oc1cc(O)c(Cl)cn1,> 30 µM,> 30 µM,> 30 µM,> 30 µM,> 30 µM,> 30 µM,> 30 µM,> 30 µM,
CC(C)N(CCCCOCC(=O)O)c1cnc(-c2ccccc2)c(-c2ccccc2)n1,> 30 µM,> 30 µM,> 30 µM,7.3 µM,> 30 µM,> 30 µM,> 30 µM,> 3 µM,> 30 µM
C[N+]12CCC(CC1)C(OC(=O)C(O)(c1ccccc1)c1ccccc1)C2 (configuration not stated),> 30 µM,1.3 µM,> 30 µM,> 30 µM,> 30 µM,> 30 µM,> 30 µM,> 30 µM,> 30 µM
Cc1cc(=O)n(-c2ccccc2)n1C [ANTIPYRINE],> 10 µM,> 30 µM,> 10 µM,> 10 µM,> 30 µM,> 30 µM,> 10 µM,> 30 µM,
O=C(O)CCNC(=O)c1ccc(/N=N/c2ccc(O)c(C(=O)O)c2)cc1 [BALSALAZIDE],> 30 µM,> 30 µM,> 30 µM,> 30 µM,> 30 µM,> 30 µM,> 30 µM,> 30 µM,> 30 µM
CO/N=C(\C(=O)N[C@@H]1C(=O)N2C(C(=O)O)=CCS[C@H]12)c1csc(N)n1 [CEFTIZOXIME],> 30 µM,> 30 µM,,> 30 µM,> 30 µM,> 30 µM,> 30 µM,> 30 µM,26 µM
COc1cc(N)c(Cl)cc1C(=O)NC1CCN(CCCOc2ccc(F)cc2)CC1OC (configuration not stated) [CISAPRIDE],1.8 µM,,16.7 µM,> 10 µM,> 30 µM,> 10 µM,> 10 µM,> 30 µM,
CCOC(=O)C(C)(C)Oc1ccc(Cl)cc1 [CLOFIBRATE],> 10 µM,> 30 µM,> 10 µM,> 10 µM,> 30 µM,> 10 µM,> 10 µM,> 30 µM,
C[C@@H]1C[C@H]2[C@@H]3CCC4=CC(=O)C=C[C@]4(C)[C@@]3(F)[C@@H](O)C[C@]2(C)[C@@]1(O)C(=O)CO [DEXAMETHASONE],> 30 µM,> 30 µM,> 10 µM,> 30 µM,> 30 µM,> 10 µM,> 30 µM,> 30 µM,
CCCCOc1ccc(C(=O)CCN2CCCCC2)cc1 [DYCLONINE],> 10 µM,3.3 µM,> 10 µM,> 10 µM,> 30 µM,> 10 µM,> 10 µM,> 30 µM,
CC(C)NC[C@H](O)COc1ccc(CC(N)=O)cc1 [ESATENOLOL],> 10 µM,,> 10 µM,,> 30 µM,> 10 µM,> 10 µM,> 30 µM,
O=C1Nc2ccc(Cl)cc2C(c2ccccc2Cl)=NC1O (configuration not stated) [LORAZEPAM],> 10 µM,> 30 µM,> 10 µM,> 30 µM,> 30 µM,> 10 µM,> 10 µM,> 30 µM,
CN1CCN=C(c2ccccc2)c2cc(Cl)ccc21 [MEDAZEPAM],> 30 µM,,0.99 µM,> 30 µM,> 30 µM,> 30 µM,> 30 µM,> 30 µM,
Cc1ccnc2c1NC(=O)c1cccnc1N2C1CC1 [NEVIRAPINE],> 10 µM,> 30 µM,> 10 µM,> 10 µM,> 30 µM,> 10 µM,> 10 µM,> 30 µM,
C[C@]12C/C(=C/O)C(=O)C[C@@H]1CC[C@@H]1[C@@H]2CC[C@@]2(C)[C@H]1CC[C@]2(C)O [OXYMETHOLONE],> 30 µM,> 30 µM,> 30 µM,> 30 µM,> 30 µM,> 30 µM,> 30 µM,> 30 µM,
COc1cc2[nH]c(C)c(CCN3CCN(c4ccccc4)CC3)c2cc1OC [OXYPERTINE],> 30 µM,,> 30 µM,> 30 µM,> 30 µM,> 30 µM,> 30 µM,> 30 µM,> 30 µM
CCC(=O)O[C@](Cc1ccccc1)(c1ccccc1)[C@H](C)CN(C)C [PROPOXYPHENE],> 10 µM,1.74 µM,,> 10 µM,> 30 µM,> 10 µM,> 10 µM,> 30 µM,
O=c1c(O)c(-c2ccc(O)c(O)c2)oc2cc(O)cc(O)c12 [QUERCETIN],> 10 µM,> 30 µM,12.7 µM,> 10 µM,> 30 µM,> 30 µM,5.6 µM,> 30 µM,
CCOC(=O)c1ccc(C#Cc2ccc3c(c2)C(C)(C)CCS3)nc1 [TAZAROTENE],> 10 µM,> 30 µM,> 10 µM,> 30 µM,> 30 µM,> 30 µM,> 10 µM,> 30 µM,
CCOC(=O)[C@@H](N)Cc1ccc(-c2cc(O[C@H](c3ccc(Cl)cc3-n3ccc(C)n3)C(F)(F)F)nc(N)n2)cc1 [TELOTRISTAT ETHYL],,26 µM,> 30 µM,> 30 µM,> 30 µM,,> 30 µM,> 30 µM,> 30 µM
